In patent US7414068B2, “Benzopyran derivatives substituted with secondary amines including tetrazole, method for the preparation thereof and pharmaceutical compositions containing them” (Dongbu Hannong Chemical Co., Ltd., priority 2002, dated 2008):

Experiments:
[1] = tested on: isolated rat aorta; assay: Vasodilating effect on blood vessel excised from rats (methoxamine-constricted aorta); details: isolated rat aorta constricted with methoxamine (3 μM); read-out: Concentration for inhibition of constriction induced by methoxamine in rat arota (IC50)
Description: Rats (350˜450 g, obtained from the Experimental Animal Team of the Korea Research Institute of Chemical Technology) were knocked to be unconscious by hitting the occipital region, sacrificed by cervical dislocation, and underwent thoracotomy. After being quickly removed, the thoracic aorta was deprived of the adipose tissue and cut into aortic rings of 3 mm width. The aorta was lightly rubbed with cotton club soaked in a modified Krebs Henseleit buffer (Physiological salt solution) to remove the inner epithelial layer therefrom. While being hung in an organ bath containing a physiological buffer, the vascular smooth muscle was allowed to equilibrate under a resting tension of 2 g and then, stand for 1 hour at 37° C. for stabilization, supplying a carbogen consisting of 95% O2˜5% CO2.
Thereafter, the vascular smooth muscle was constricted with 10^−5M phenylephrine and washed several times with physiological saline solution. The said procedure was repeated again to ensure the stable reactivity of vascular smooth muscle to repetitive constriction/relaxation.
Thereafter, 3×10^−6 M methoxamine was applied to induce an intensive constriction in the vascular smooth muscle. When the vasoconstriction induced by the methoxamine was reached and maintained to a maximum, test compounds and control material was cumulatively added to the organ bath in concentration of 1, 3, 10 and 30 μM, respectively, to examine the vasodilating effect. Cromakalim, BMS-180448 (the compound of formula 4) and BMS-191095 (the compound of formula 5), known to be the first generation KATP opener with potent vasodilating effect were used as control materials.
The change rate of constriction by the addition of the drugs compared to the maximal constriction induced by methoxamine was calculated to plot a concentration-relaxation response curve. Through a least linear regression analysis, IC50 that the drug concentration at which the vascular tissue is relaxed to 50% extent of the maximal constriction, was obtained for each drug.

[2] = tested on: isolated ischemic rat heart; assay: Cardioprotective effect in ischemic heart models of rats (Langendorff); details: 10 μM
Description: Male rats (300˜450 g, obtained form the experimental animal team of the Korea Research Institute of Chemical Technology) were anaesthetized by the intra-peritoneal injection of sodium pentobarbital at a dose of 100 mg/kg. Heparin (1,000 U/kg) was injected to the tail vein and then the heart was enucleated. Particularly, cannula (PE 240) was inserted to the organ. Rats were mechanically ventilated with a rodent ventilator, in situ aorta cannula was inserted into their aorta. In retorograde perfusion, their hearts were enucleated, then just hung onto Langendorff Apparatus. Tissue attached at the heart was removed. Heart was perfused in oxygenated modified Krebs-Henseleit bicarbonate buffer (composition<mM/L>116 NaCl, 4.7 KCl, 1.1 MgSO4, 1.17 KH2PO4, 24.9 NaHCO3, 2.52 CaCl2, 8.32 Glucose, 2.0 Pyruvate) at a constant perfusion pressure (85 mmHg). A metal cannula attached to latex balloon filled with solvent (ethanol: water=1:1 (v/v)) was placed in the left ventricle through pulmonary vein and connected to a isovolumetric pressure transducer (H.S.E., Germany) for measurement of left ventricular pressure (LVP). The hearts were allowed to equilibrate for 15 min, at which time left ventricular end-diastolic pressure (EDP) was adjusted to 5 mmHg and this balloon volume was maintained throughout the experiment.
Baseline cardiac contractile function, heart rate (HR), and coronary flow (CF) were measured. Cardiac contractile function was calculated by […], yielding LVDP (left ventricular developed pressure). Double product RPP (rate-pressure product) (DP), another important parameter for indirectly assessing cardiac performance in Langendorff heart impossible to measure cardiac output was calculated by multiplying HR by LVDP.
Throughout the experiment, total coronary blood flow was measured by the use of coronary flow probe (diameter: 1.0 mm) installed in aortic cannula with electromagnetic flowmeter. Temperature of heart was steadily maintained by immersing the heart at 37° C. in physiological saline solution to which 95% O2/5% CO2 was constantly supplied. After stabilization for 15 min, the hearts were pre-treated for 10 min in vehicle (0.04% DMSO) or mixture containing the compound of the present invention or control material. Thereafter, cardiac contractile function, HR and CF were repeatedly measured. Global ischemia was induced by completely shutting off the perfusate for 30 min. Severity of ischemia was determined as the time to contracture (TTC, min) during global ischemia in which the first 5 mmHg increase in EDP was observed. Then, the hearts were reperfused and, 30 min later, contractile functions (LVDP, HR and CF) was repeatedly measured. After reperfusion was accomplished for 30 min, LDH (lactate dehydrogenase) was measured as a sensitive index for loss of cell viability with a kit.

[3] = Acute oral toxicity test in rats; details: SD, rat, in vivo, single oral dose, suspended in 0.5% methyl cellulose, read-out: lethal dose (LD50) for oral administration
Description: In this test, six-week old SPF SD rats were used with two rats assigned to each group. Each group was consisted of two rats. The compounds prepared in example 1, 7, 11, 17, 22, 24, 26, 28, 30, 32, 34, 42, 52, 54, 55, 56, 57, 59, 60, 61, 70, 75, 77, 79, 81, 83, 85, and 89 were suspended in 0.5% methyl cellulose, respectively. […] Also, hematological test and biochemical analysis were accomplished. After sacrificing the animals, autopsy was performed for macroscopic observations of the organs and tissues. As a result, there was no significant changes in clinical symptoms, body weight and mortalities. Also in hematology, serum chemistry parameters, macroscopic observation and drug-related changes were not observed.

[4] = tested on: cortical neuron cells; assay: Protective effect on iron-induced neuronal cell injury (LDH release); assay type: cell-based; details: FeSO4 50 μM; for protective effect on neuron cell: Inhibition (%, 30 μM compound addition): LDH reduction vs control; for IC50: LDH
Description: From the brains of 17˜18 day-old embryos, cortical neuron cells were isolated and then, cultured at 37° C. for 7˜9 days in a 5% CO2 incubator. The said cortical cell cultures were washed twice with MEM (Minimum essential medium) to reduce the serum level to 0.2%. […] Then, the compound of the said concentration was pre-treated for 30 min, respectively. For the experiment, test compound was dissolved in DMSO and diluted in a medium. At this time, the final concentration of DMSO was not allowed to exceed 0.1%. For control group, only vehicle was applied.
After the said pre-treatment, FeSO4 was added to the medium for a final concentration to be 50 μM. The medium was cultured in CO2 incubator for 24 hours. During the incubation, lactate dehydrogenase (LDH) was released by iron. The serum level of lactate dehydrogenase released into the medium was measured to assess necrosis of neuronal cell by the oxidative toxicity of iron. The protective effect on neuron cells of the test compounds was evaluated by calculating the LDH reduction rate of treatment-group compared with that of the control group.

Row | SMILES | IC50 [1] | EDP (mmHg) ([2]; after 30 min global ischemia and reperfusion) | LDH (u/g) ([2]; reperfusion LDH release) | LVDP X HR (%) ([2]; reperfusion, % of pre-treatment DP) | TTC ([2]; time to contracture during global ischemia) | LD50 [3] | protective effect on neuron cell: Inhibition (%, 30 μM compound addition) ([4]; 24 hours) | IC50 ([4]; Cortical neurone, 24 h) | IC50 ([4]; 24 hours)
1 | COC(OC)[C@@]1(C)Oc2ccc([N+](=O)[O-])cc2[C@@H](N(Cc2nnn(C)n2)c2ccc(Cl)cc2)[C@@H]1O [Example 1, (2S,3S,4R)-6-nitro-4-[N-(4-chlorophenyl)-N-(2-methyl-2H-tetrazol-5-ylmethyl)amino]-3-hydroxy-2-methyl-2-dimethoxymethyl-3,4-dihydro-2H-1-benzopyran] | 7.14 µM | 29.3 mmHg | 15.2 u/g | 46.8% | 24.8 min | > 2000 mg/kg | 71% | 18.1 µM | 
2 | COC(OC)[C@@]1(C)Oc2ccc([N+](=O)[O-])cc2[C@@H](N(Cc2ccccc2)Cc2nnn(C)n2)[C@@H]1O [Example 7, (2S,3S,4R)-6-nitro-4-[N-benzyl-N-(2-methyl-2H-tetrazol-5-ylmethyl)amino]-3-hydroxy-2-methyl-2-dimethoxymethyl-3,4-dihydro-2H-1-benzopyran] | 5.59 µM |  |  |  |  | > 2000 mg/kg | 59% | 34.1 µM | 
3 | COC(OC)[C@@]1(C)Oc2ccc(N)cc2[C@@H](N(Cc2nnn(C)n2)c2cccc(Cl)c2)[C@@H]1O [Example 22, (2S,3S,4R)-6-amino-4-[N-(3-chlorophenyl)-N-(2-methyl-2H-tetrazol-5-ylmethyl)amino]-3-hydroxy-2-methyl-2-dimethoxymethyl-3,4-dihydro-2H-1-benzopyran] | > 30 µM |  |  |  |  | > 2000 mg/kg | 97% | 5.9 µM | 
4 | COC(OC)[C@@]1(C)Oc2ccc(N)cc2[C@H](N(Cc2nnn(C)n2)c2cccc(Cl)c2)[C@H]1O [Example 26, (2S,3R,4S)-6-amino-4-[N-(3-chlorophenyl)-N-(2-methyl-2H-tetrazol-5-ylmethyl)amino]-3-hydroxy-2-methyl-2-dimethoxymethyl-3,4-dihydro-2H-1-benzopyran] | 24.6 µM |  |  |  |  | > 2000 mg/kg | 97% | 2.2 µM | 
5 | COC(OC)[C@@]1(C)Oc2ccc([N+](=O)[O-])cc2[C@H](N(Cc2nnn(C)n2)c2ccc(OC(F)(F)F)cc2)[C@H]1O [Example 31, (2S,3R,4S)-6-nitro-4-[N-(4-trifluoromethoxyphenyl)-N-(2-methyl-2H-tetrazol-5-ylmethyl)amino]-3-hydroxy-2-methyl-2-dimethoxymethyl-3,4-dihydro-2H-1-benzopyran] | > 30 µM |  |  |  |  |  | 86% | < 2 µM | 1.8 µM
6 | COC(OC)[C@@]1(C)Oc2ccc(N)cc2[C@H](N(Cc2nnn(C)n2)c2ccc(C(F)(F)F)cc2)[C@H]1O [Example 34, (2S,3R,4S)-6-amino-4-[N-(4-trifluoromethylphenyl)-N-(2-methyl-2H-tetrazol-5-ylmethyl)amino]-3-hydroxy-2-methyl-2-dimethoxymethyl-3,4-dihydro-2H-1-benzopyran] | > 30 µM |  |  |  |  | > 2000 mg/kg | 111% | 1.5 µM | 
7 | COC(OC)[C@@]1(C)Oc2ccc(N)cc2[C@@H](N(Cc2nnn(C)n2)c2ccc(C(F)(F)F)cc2)[C@@H]1O [Example 75, (2S,3S,4R)-6-amino-4-[N-(4-trifluoromethylphenyl)-N-(2-methyl-2H-tetrazol-5-ylmethyl)amino]-3-hydroxy-2-methyl-2-dimethoxymethyl-3,4-dihydro-2H-1-benzopyran] | > 30 µM |  |  |  |  | > 2000 mg/kg | 125% | < 2 µM | 1.8 µM
8 | COC(OC)[C@]1(C)Oc2ccc(N)cc2[C@@H](N(Cc2nnn(C)n2)c2ccc(C(F)(F)F)cc2)[C@@H]1O [Example 77, (2R,3S,4R)-6-amino-4-[N-(4-trifluoromethylphenyl)-N-(2-methyl-2H-tetrazol-5-ylmethyl)amino]-3-hydroxy-2-methyl-2-dimethoxymethyl-3,4-dihydro-2H-1-benzopyran] | > 30 µM |  |  |  |  | > 2000 mg/kg | 111% | < 2 µM | 1.9 µM
9 | COC(OC)[C@]1(C)Oc2ccc(N)cc2[C@H](N(Cc2nnn(C)n2)c2ccc(OC(F)(F)F)cc2)[C@H]1O [Example 83, (2R,3R,4S)-6-amino-4-[N-(4-trifluoromethoxyphenyl)-N-(2-methyl-2H-tetrazol-5-ylmethyl)amino]-3-hydroxy-2-methyl-2-dimethoxymethyl-3,4-dihydro-2H-1-benzopyran] | > 30 µM |  |  |  |  | > 2000 mg/kg | 80% | 3.7 µM | 
10 | COC(OC)[C@]1(C)Oc2ccc(N)cc2[C@@H](N(Cc2nnn(C)n2)c2ccc(OC(F)(F)F)cc2)[C@@H]1O [Example 85, (2R,3S,4R)-6-amino-4-[N-(4-trifluoromethoxyphenyl)-N-(2-methyl-2H-tetrazol-5ylmethyl)amino]-3-hydroxy-2-methyl-2-dimethoxymethyl-3,4-dihydro-2H-1-benzopyran] | > 30 µM |  |  |  |  | > 2000 mg/kg | 119% | < 2 µM | 1.8 µM
11 | COC(OC)[C@@]1(C)Oc2ccc([N+](=O)[O-])c(C)c2[C@@H](N(Cc2nnn(C)n2)c2ccc(Cl)cc2)[C@@H]1O [Example 98, (2S,3S,4R)-6-nitro-5-methyl-4-[N-(4-chlorophenyl)-N-(2-methyl-2H-tetrazol-5-ylmethyl)amino]-3-hydroxy-2-methyl-2-dimethoxymethyl-3,4-dihydro-2H-1-benzopyran] | 7.34 µM |  |  |  |  |  | 85% | 10.5 µM | 
